Results taken from patent publication US9144569B2, “Methods of administering an aromatase inhibitor, prostaglandin and GnRH for regulating ovulation in cattle” (UNIVERSITY OF SASKATCHEWAN, priority 2010, dated 2015).
Where two headings read alike, the source gives them in different places. Marks after values point to notes of the source that are not given here.

Assays:
plasma FSH = assay: Example I: plasma FSH by double-antibody radioimmunoassay after single iv dose; type: in vivo, cattle; details: by 72 hours after single iv dose, doses combined; P<0.03
Procedure: Heifers in which a CL was detected during the initial examination were given […] cloprostenol (PGF, Estrumate™, Schering-Plough Animal Health, Pointe-Claire, QC, Canada) intramuscularly (im) to induce regression of the CL and to synchronize ovulation. Heifers were examined daily by transrectal ultrasonography to detect ovulation. Transvaginal ultrasound-guided follicular aspiration of follicles ≧5 mm was performed five to eight days after ovulation to synchronize wave emergence. Heifers were examined daily by transrectal ultrasonography to detect follicular wave emergence, which was expected 1 to 1.5 days after follicular ablation. […] For practical purposes, the dose of letrozole was calculated based on an average weight of 400 kg for all heifers. […]
Statistical analyses were done using the Statistical Analysis System software package (SAS Learning Edition 9.1, 2006; SAS Institute Inc., Cary, N.C., USA). Time-series hormone data, plasma letrozole concentration, and follicular diameter profiles were analyzed by repeated measures, using the PROC MIXED procedure. […]

plasma progesterone = assay: Example II: plasma progesterone, 3-day letrozole regimen; type: in vivo, cattle; details: 3-day regimen, groups combined; numerically higher
Procedure: Four days after follicular ablation, heifers were given 500 μg of cloprostenol (PGF, Estrumate, Schering-Plough Animal Health, Pointe-Claire, QC, Canada) intramuscularly (im) to induce regression of the CL and to synchronize ovulation. The experiment was performed in two replicates (n=20-27 per replicate) and each heifer was used only once. In replicate 1, heifers were assigned randomly at the time of ovulation (Day 0) to the following groups and given a 3-day regimen of letrozole from Days 1 to 3 (n=5), Days 3 to 5 (n=5), Days 5 to 7 (n=5), or no treatment (control group, n=5). In replicate 2, heifers were similarly assigned to groups and given letrozole from Days 1 to 3, (n=5), Days 3 to 5 (n=4), or Days 5 to 7 (n=4), but untreated control heifers were arranged in three sub-groups to serve as contemporaneous controls for each letrozole-group during intensive blood sampling periods (i.e., control Days 1 to 3, n=4; control Days 3 to 5, n=4; and control Days 5 to 7, n=5). For practical purposes, the total dose of letrozole (250 μg/kg) was calculated on the basis of an average weight of 350 kg for all heifers and administered intravenously in daily divided doses over 3 days (85 μg/kg per day). […]
Plasma progesterone concentrations were determined in duplicate using a commercial solid-phase kit (Coat-A-Count; Diagnostic Products Corporation, Los Angeles, Calif., USA). […]

heifers = assay: Example III: letrozole 1 mg/kg intravenously or intramuscularly in heifers, ovarian ultrasonography; type: in vivo, cattle; details: for Interwave Interval / Interovulatory Interval: mean±SEM
Procedure: Ovarian cyclicity in heifers was synchronized using transvaginal ultrasound-guided follicular ablation followed by a double dose of PGF 4 days after ablation. The ovaries were examined daily by transrectal ultrasonography to detect ovulation. Three days after ovulation, heifers were assigned randomly to four treatment groups and given letrozole at a dose of 1 mg/kg intravenously (in benzyl alcohol, n=10) or intramuscularly (in benzyl alcohol plus canola oil 1:1 v/v, n=10), or given a placebo intravenously (benzyl alcohol, n=5) or intramuscularly (benzyl alcohol plus canola oil 1:1 v/v, n=5). Ovarian structures were monitored by ultrasonography and blood samples were collected by jugular venipuncture twice daily from pre-treatment to post-treatment ovulations. Comparisons among groups were made by one-way ANOVA for single-point measurements and by ANOVA for repeated measures for time-series data.
Transrectal ultrasonography: daily from PGF treatment to the first ovulation post-treatment.
Endpoints are: Follicular diameter profiles; CL diameter profile; Circulating progesterone concentration; Circulating FSH and LH profiles; Letrozole profile and bioavailability; Circulating estradiol concentration Follicular fluid estradiol concentration).

[1] = cited from earlier work
circulating estradiol = details: post-menopausal women [30]; cited from earlier work

Q: For `N#Cc1ccc(C(c2ccc(C#N)cc2)n2cncn2)cc1` [Letrozole, letrozole], which “plasma FSH concentrations compared to controls” value (plasma FSH) is on record?
A: lower

Q: What about the “differences in plasma progesterone concentrations vs control” value (plasma progesterone) of the same molecule?
A: not significant

Q: And the “Interwave Interval” value (heifers; 1 mg/kg IM in benzyl alcohol plus canola oil)?
A: 11.7 ± 0.34^b Days

Q: What about the “Interwave Interval” value (heifers; 1 mg/kg IM in benzyl alcohol plus canola oil, listed as letrozole) of the same molecule?
A: 11.7 days

Q: And the “day-to-day diameter profile of the corpus luteum vs IM controls” value (heifers; 1 mg/kg IM, P<0.05)?
A: larger

Q: What about the “Interovulatory Interval” value (heifers; 1 mg/kg IM) of the same molecule?
A: 19.7 ± 0.83 days

Q: What about the “Interwave Interval” value (heifers; 1 mg/kg IV in benzyl alcohol) of the same molecule?
A: 10.6 ± 0.30^a,b Days

Q: And the “Interwave Interval” value (heifers; 1 mg/kg IV in benzyl alcohol, listed as letrozole)?
A: 10.6 days

Q: And the “day-to-day diameter profile of the dominant follicle among groups” value (heifers; 1 mg/kg IV or IM vs placebo, Day 3 after ovulation)?
A: not different

Q: And the “Interovulatory Interval” value (heifers; 1 mg/kg IV)?
A: 18.9 ± 0.70 days

Q: And the half-life of letrozole ([1]; in humans [46])?
A: approximately 2 days

Q: What about the half-life of letrozole ([1]; in women [41, 61]) of the same molecule?
A: 48 h

Q: What about the mean residence time ([1]; in women [41]) of the same molecule?
A: 59 h

Q: What about the volume of distribution ([1]; in women [41]) of the same molecule?
A: 1.87 L/kg

Q: What about the “reduction in circulating estradiol concentrations” value (circulating estradiol) of the same molecule?
A: 97-99%
